Tests used:
Neutrophil = test: Cytotoxicity against C57BL/6NCr mouse Neutrophil assessed as reduction in cell viability at 20 uM followed by photo-irradiation with 20 mW/cm^2 light by tryptan blue dye based hemacytometer; format: toxicity
Staphylococcus aureus [1] = test: Photodynamic antibacterial activity against Methicillin-resistant Staphylococcus aureus assessed as reduction in bacterial colony forming unit at 500 microg/ml followed by photo-irradiation with 664 nm for 400 sec; format: functional; conditions: dose 500 µg/ml, 0.1111 h
[2] = Photodynamic antibacterial activity against mix of Methicillin-resistant Staphylococcus aureus-Pseudomonas aeruginosa assessed as reduction in bacterial colony forming unit at 300 microg/ml followed by photo-irradiation with 664 nm for 400 sec; format: functional; conditions: dose 300 µg/ml, 0.1111 h
[3] = Photodynamic antibacterial activity against mix of Methicillin-resistant Staphylococcus aureus-Pseudomonas aeruginosa in maxillary sinus model assessed as reduction in bacterial colony forming unit at 0.03 % followed by photo-irradiation with 150 mW/cm^2 light by spectrophotometry; format: functional
Staphylococcus aureus [4] = test: Photodynamic antibacterial activity against Methicillin-resistant Staphylococcus aureus infected C57 mouse excision wound model assessed as fold reduction in bacterial growth at 100 microg/ml,po for 15 mins followed by photo-irradiation with 360 J/cm^2 light for 30 mins; format: functional; conditions: dose 100 µg/ml, time 45 min, 0.75 h
Staphylococcus aureus [5] = test: Photodynamic antibacterial activity against Methicillin-resistant Staphylococcus aureus infected C57 mouse superficial wound model assessed as fold reduction in bacterial growth at 100 microg/ml,po for 15 mins followed by photo-irradiation with 360 J/cm^2 light for 30 mins; format: functional; conditions: dose 100 µg/ml, time 45 min, 0.75 h
[6] = Photodynamic antibacterial activity against mix of Methicillin-resistant Staphylococcus aureus-Pseudomonas aeruginosa assessed as reduction in bacterial colony forming unit at 500 microg/ml followed by photo-irradiation with 664 nm for 400 sec; format: functional; conditions: dose 500 µg/ml, 0.1111 h
[7] = Cytotoxicity against C57BL/6NCr mouse Neutrophil assessed as cell viability followed by photo-irradiation with 20 mW/cm^2 light by tryptan blue dye based hemacytometer; format: toxicity; conditions: mouse neutrophils, read-out: Activity
Staphylococcus aureus [8] = test: Photodynamic antibacterial activity against Methicillin-resistant Staphylococcus aureus assessed as reduction in bacterial colony forming unit at 50 microg/ml followed by photo-irradiation with 163.8 J/cm^2 for 10 to 30 mins; format: functional; conditions: dose 50 µg/ml; time 10-30 min
Staphylococcus aureus [9] = test: Photodynamic antibacterial activity against Methicillin-resistant Staphylococcus aureus assessed as reduction in bacterial colony forming unit at 3 uM followed by photo-irradiation with 30 J/cm^2 for 30 mins; format: functional; conditions: 0.5 h
[10] = Photodynamic antibacterial activity against mix of Methicillin-resistant Staphylococcus aureus-Pseudomonas aeruginosa in endotracheal tube model assessed as reduction in growth unit at 500 microg/ml followed by photo-irradiation with 108 J/cm^2 light for 12 mins; format: functional; design: scale not given: the % may be the effect or the level left; conditions: dose 500 µg/ml, 0.2 h
Staphylococcus aureus [11] = test: Photodynamic antibacterial activity against Methicillin-resistant Staphylococcus aureus assessed as reduction in bacterial growth at 250 microg/ml followed by photo-irradiation with 100 J/cm^2 light for 100 sec; format: functional; design: scale not given: the % may be the effect or the level left; conditions: dose 250 µg/ml, 100 s
Staphylococcus aureus [12] = test: Photodynamic antibacterial activity against Methicillin-resistant Staphylococcus aureus assessed as reduction in bacterial colony forming unit at 300 microg/ml followed by photo-irradiation with 664 nm for 400 sec; format: functional; conditions: dose 300 µg/ml, 0.1111 h
[13] = Photodynamic antibacterial activity against mix of Methicillin-resistant Staphylococcus aureus-Pseudomonas aeruginosa in maxillary sinus model assessed as reduction in bacterial growth at 0.03 % followed by photo-irradiation with 150 mW/cm^2 light by spectrophotometry; format: functional; design: scale not given: the % may be the effect or the level left
Staphylococcus aureus [14] = test: Photodynamic antibacterial activity against Methicillin-resistant Staphylococcus aureus clinical isolate 1 assessed as reduction in bacterial growth at 0.01 % followed by photo-irradiation with 5.4 J/cm^2 light for 30 min by microscopic analysis; format: functional; design: scale not given: the % may be the effect or the level left; conditions: 0.5 h
Staphylococcus aureus [15] = test: Photodynamic antibacterial activity against Methicillin-resistant Staphylococcus aureus ATCC 43300 assessed as reduction in bacterial growth at 0.01 % followed by photo-irradiation with 412 nm at 5.4 J/cm^2 light for 10 min by microscopic analysis; format: functional; design: scale not given: the % may be the effect or the level left
Staphylococcus aureus [16] = test: Photodynamic antibacterial activity against Methicillin-resistant Staphylococcus aureus clinical isolate 2 assessed as reduction in bacterial growth at 0.01 % followed by photo-irradiation with 5.4 J/cm^2 light for 30 min by microscopic analysis; format: functional; design: scale not given: the % may be the effect or the level left; conditions: 0.5 h
Staphylococcus aureus [17] = test: Photodynamic antibacterial activity against Methicillin-resistant Staphylococcus aureus ATCC 43300 assessed as reduction in bacterial growth at 0.01 % followed by photo-irradiation with 450 nm at 5.4 J/cm^2 light for 10 min by microscopic analysis; format: functional; design: scale not given: the % may be the effect or the level left
Staphylococcus aureus [18] = test: Photodynamic antibacterial activity against Methicillin-resistant Staphylococcus aureus assessed as reduction in bacterial growth at 0.01 % followed by photo-irradiation with 5405 J/cm^2 light for 30 min by microscopic analysis; format: functional; design: scale not given: the % may be the effect or the level left; conditions: 0.5 h
Staphylococcus aureus [19] = test: Photodynamic antibacterial activity against Methicillin-resistant Staphylococcus aureus in bovine bone assessed as reduction in bacterial colony forming unit at 1.5 g/L followed by photo-irradiation with 20.1 J/cm^2 light for 24 hrs by fluorescence spectroscopy; format: functional
Staphylococcus aureus [20] = test: Photodynamic antibacterial activity against Methicillin-resistant Staphylococcus aureus infected Balb/C mouse assessed as reduction in lymph node bacterial colony forming unit at 1.5 %,ID followed by photo-irradiation with 54 J/cm^2 light measured upto 72 hrs; format: functional
Staphylococcus aureus [21] = test: Photodynamic antibacterial activity against Methicillin-resistant Staphylococcus aureus assessed as reduction in bacterial growth at 120 uM followed by photo-irradiation with blue light for 10 to 120 min; format: functional; design: scale not given: the % may be the effect or the level left; conditions: time 10-120 min
Staphylococcus aureus [22] = test: Photodynamic antibacterial activity against Methicillin-resistant Staphylococcus aureus assessed as reduction in bacterial growth at 30 uM followed by photo-irradiation with violet light for 10 to 120 min; format: functional; design: scale not given: the % may be the effect or the level left; conditions: time 10-120 min
Staphylococcus aureus [23] = test: Photodynamic antibacterial activity against Methicillin-resistant Staphylococcus aureus assessed as reduction in bacterial growth followed by photo-irradiation with 25 J/cm^2 light for 15 mins by crystal violet staining assay; format: functional; design: scale not given: the % may be the effect or the level left; conditions: 0.25 h
Staphylococcus aureus [24] = test: Photodynamic antibacterial activity against Methicillin-resistant Staphylococcus aureus assessed as reduction in bacterial colony forming unit at 8 uM followed by photo-irradiation with 30 J/cm^2 light; format: functional

## CC/N=c1/cc2sc3cc(NCC)c(C)cc3nc-2cc1C.Cl
Neutrophil
  Activity: < 70%

## CN(C)c1ccc2nc3ccc(N(C)C)cc3[s+]c2c1.[Cl-] [METHYLENE BLUE ANHYDROUS]
Staphylococcus aureus [1]
  Activity: 7.39 log10CFU
[2]
  Activity: 6.7 log10CFU
[3]
  Activity: 5 log10CFU
Staphylococcus aureus [4]
  fold change (FC): 25
Staphylococcus aureus [5]
  fold change (FC): 14
[6]
  Activity: 7.39 log10CFU
[7]
  viability: > 80%
Staphylococcus aureus [8]
  Activity: 2.2 log10CFU
Staphylococcus aureus [9]
  Activity: 7 log10CFU
[10]
  Activity: >99.9%
Staphylococcus aureus [11]
  Activity: >99%
Staphylococcus aureus [12]
  Activity: 6.7 log10CFU
[13]
  Activity: >99.99%

## Cc1cc2c(cc1C)N(C[C@H](O)C[C@H](O)CO)C1NC(=O)NC(=O)C1=N2 (stereo not given in full)
Staphylococcus aureus [14]
  Activity: 98%
Staphylococcus aureus [15]
  Activity: 99%
Staphylococcus aureus [16]
  Activity: 100%
Staphylococcus aureus [17]
  Activity: 98%
Staphylococcus aureus [18]
  Activity: 90%

## COc1cc(/C=C/C(=O)CC(=O)/C=C/c2ccc(O)c(OC)c2)ccc1O [CURCUMIN]
Staphylococcus aureus [19]
  Activity: 3.6 log10CFU
Staphylococcus aureus [20]
  Activity: >5 log10CFU

## Cc1cc2nc3c(=O)[nH]c(=O)nc-3n(C[C@H](O)[C@H](O)[C@H](O)COP(=O)(O)O)c2cc1C [RIBOFLAVIN 5'-PHOSPHATE]
Staphylococcus aureus [21]
  Activity: 95.2%
Staphylococcus aureus [22]
  Activity: 97%

## Cc1cc(O)c2c3c1-c1c(C)cc(O)c4c1C1c5c(c(O)cc(O)c5-c5c(O)cc(O)c(c5C31)C2=O)C4=O (stereo not given)
Staphylococcus aureus [23]
  Activity: 92.2%
Staphylococcus aureus [24]
  Activity: >6 log10CFU
